Results: patent EP0799834A1, “Modified nucleotides” (priority 1996, dated 1997)

What was measured:
Assay type in all cases: biochemical
HIV-1RT = molecular target: T1, HIV-1RT (Human immunodeficiency virus type 1 group M subtype B, UniProt P04585); test: Chain elongation: addition of modified nucleotide to primer by reverse transcriptase (gel autoradiography); design: key to addition of modified nucleotide to the primer: +: slow addition of modified nucleotide to the primer; ++: good addition of modified nucleotide to the primer; -: no addition of modified nucleotide to the primer; details: HIV-1RT 0.13 units; modified nucleotide 100 µM; dATP, dGTP, dCTP 1.0 µM each; 37°C
T1 construct: HIV-1RT
Experimental: (§1) The triposphates of the modified nucleotides are synthesized as described by Kovács & Ötvös (Tetrahedron Lett. (1988), 29, […]) • 5' P^32-[…]-OH SEQ ID NO:1 • 3' HO-[…]-OH SEQ ID NP:2
(§2) A solution of template (3.0 pmol of SEQ ID NO:2) and radioactive primer (0.8 pmol of SEQ ID NO:1) in 72 µl buffer (20 mM Tris-HCl, pH 7.5; 6 mM MgCl2; 40 mM KCl; 0.5 mM DTT) are heated to 80°C and allowed to cool down to 25°C within one hour. To this solution polymerase (see table 1) is added. Aliquots of thereof are mixed with 4 µl of a solution comprising dATP, dGTP, dCTP and the modified nucleotide (see table 1), resulting in a final concentration of dATP, dGTP and dCTP as provided in table 1 and a final concentration of the modified nucleotide of 100 µM. The solutions are incubated at 37°C and the elongation reaction is stopped by addition of 5 µl of a solution of formamide comprising 5 mM EDTA (pH 8.0).
(§3) 3-5 µl of these solutions are subjected to a polyacrylamide gel (19 % acrylamide, 7 M urea). After electrophoresis the gel is transferred to a filter paper, dried and analyzed using autoradiography (see table 2).

AMV RT = test: as above; design: key: +: slow addition of modified nucleotide to the primer; ++: good addition of modified nucleotide to the primer; -: no addition of modified nucleotide to the primer; details: AMV RT 2.0 units; modified nucleotide 100 µM; dATP, dGTP, dCTP 0.5 µM each; 37°C
Experimental: as §1, §2, §3

M-MuLV RT = molecular target: T2, M-MuLV RT (Moloney murine leukemia virus, UniProt P03355); test: as above; design: key: +: slow addition of modified nucleotide to the primer; ++: good addition of modified nucleotide to the primer; -: no addition of modified nucleotide to the primer; details: M-MuLV RT 9 units; modified nucleotide 100 µM; dATP, dGTP, dCTP 15.0 µM each; 37°C
T2 construct: M-MuLV RT
Experimental: as §1, §2, §3

Klenow = molecular target: T3, Klenow (Escherichia coli, UniProt P00582); test: Chain elongation: addition of modified nucleotide to primer by polymerase (gel autoradiography); design: key: +: slow addition of modified nucleotide to the primer; ++: good addition of modified nucleotide to the primer; -: no addition of modified nucleotide to the primer; details: Klenow 1.5 units; modified nucleotide 100 µM; dATP, dGTP, dCTP 0.5 µM each; 37°C
T3 construct: Klenow
Experimental: as §1, §2, §3

T7 sequenase version 2 = T7 sequenase version 2 (Escherichia phage T7, UniProt P00581, DEL118-145); test: as above; design: key: +: slow addition of modified nucleotide to the primer; ++: good addition of modified nucleotide to the primer; -: no addition of modified nucleotide to the primer; details: T7 sequenase version 2 0.13 units; modified nucleotide 100 µM; dATP, dGTP, dCTP 2.5 µM each; 37°C
Experimental: as §1, §2, §3

T3 sequence (P00582 324-928): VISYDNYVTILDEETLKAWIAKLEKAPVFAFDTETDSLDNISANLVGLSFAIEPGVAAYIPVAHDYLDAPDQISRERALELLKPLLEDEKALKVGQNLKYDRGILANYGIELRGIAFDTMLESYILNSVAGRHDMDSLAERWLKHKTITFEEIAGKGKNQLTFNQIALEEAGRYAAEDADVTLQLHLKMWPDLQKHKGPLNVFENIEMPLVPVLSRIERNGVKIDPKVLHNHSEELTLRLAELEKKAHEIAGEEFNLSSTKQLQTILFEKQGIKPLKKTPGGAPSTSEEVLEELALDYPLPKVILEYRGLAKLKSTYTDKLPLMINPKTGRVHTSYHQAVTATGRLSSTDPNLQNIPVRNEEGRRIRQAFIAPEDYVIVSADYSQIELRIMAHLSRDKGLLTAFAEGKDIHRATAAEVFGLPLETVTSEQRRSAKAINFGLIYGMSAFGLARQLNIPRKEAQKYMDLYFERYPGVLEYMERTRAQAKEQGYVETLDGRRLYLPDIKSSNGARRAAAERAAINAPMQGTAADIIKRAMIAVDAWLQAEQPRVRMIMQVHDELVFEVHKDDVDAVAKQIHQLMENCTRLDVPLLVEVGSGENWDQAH
T7 sequenase version 2, sequence (P00581 other isoform, or with tags, fused parts or gaps DEL118-145): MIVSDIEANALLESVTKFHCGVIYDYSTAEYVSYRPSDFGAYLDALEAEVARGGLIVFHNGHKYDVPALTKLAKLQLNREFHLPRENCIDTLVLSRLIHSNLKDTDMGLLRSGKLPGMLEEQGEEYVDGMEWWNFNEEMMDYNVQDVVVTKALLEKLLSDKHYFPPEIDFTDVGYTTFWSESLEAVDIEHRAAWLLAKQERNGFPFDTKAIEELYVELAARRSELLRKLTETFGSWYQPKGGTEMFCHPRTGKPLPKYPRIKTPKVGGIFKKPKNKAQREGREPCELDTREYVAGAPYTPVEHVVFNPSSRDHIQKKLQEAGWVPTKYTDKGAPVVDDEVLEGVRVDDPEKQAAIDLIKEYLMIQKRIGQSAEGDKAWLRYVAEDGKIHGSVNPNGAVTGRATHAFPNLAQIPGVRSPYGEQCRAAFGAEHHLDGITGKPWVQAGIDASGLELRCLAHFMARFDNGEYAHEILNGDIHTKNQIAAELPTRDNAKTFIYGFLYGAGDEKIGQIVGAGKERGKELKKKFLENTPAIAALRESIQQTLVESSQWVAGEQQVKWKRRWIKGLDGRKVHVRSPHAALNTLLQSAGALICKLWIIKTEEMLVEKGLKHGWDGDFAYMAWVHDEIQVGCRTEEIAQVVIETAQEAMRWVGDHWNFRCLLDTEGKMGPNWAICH
T7 sequenase version 2, sequence (P0AA25 2-109, stated change not applied, further chain): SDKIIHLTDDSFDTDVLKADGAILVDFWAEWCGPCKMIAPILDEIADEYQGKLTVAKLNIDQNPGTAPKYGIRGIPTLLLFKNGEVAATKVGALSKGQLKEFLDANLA

Compound | addition of modified nucleotide to the primer (HIV-1RT) | addition of modified nucleotide to the primer (AMV RT) | addition of modified nucleotide to the primer (M-MuLV RT) | addition of modified nucleotide to the primer (Klenow) | addition of modified nucleotide to the primer (T7 sequenase version 2) | elongation after addition of modified nucleotide (HIV-1RT)
Cc1cn([C@H]2C[C@H](O)[C@](COP(=O)(O)OP(=O)(O)OP(=O)(O)O)(C(=O)c3ccccc3)O2)c(=O)[nH]c1=O [R^1=C6H5] | ++ | ++ | - | - | - | 
CCC(=O)[C@]1(COP(=O)(O)OP(=O)(O)OP(=O)(O)O)O[C@@H](n2cc(C)c(=O)[nH]c2=O)C[C@@H]1O [R^1=CH3CH2] | ++ | ++ | ++ | + | ++ | 
CC(=O)[C@]1(COP(=O)(O)OP(=O)(O)OP(=O)(O)O)O[C@@H](n2cc(C)c(=O)[nH]c2=O)C[C@@H]1O [R^1=CH3] | ++ | ++ | ++ | ++ | ++ | elongation
Cc1cn([C@H]2C[C@H](O)[C@](COP(=O)(O)OP(=O)(O)OP(=O)(O)O)(C(=O)C(C)(C)C)O2)c(=O)[nH]c1=O [R^1=t-butyl] | - | - | - | - | - | 
